Sequences and labels used below:
T1: RB (retinoblastoma protein, endogenous, in lysate of RafAR-NIH3T3 control cells) (UniProt P13405 2-921)
T1 sequence: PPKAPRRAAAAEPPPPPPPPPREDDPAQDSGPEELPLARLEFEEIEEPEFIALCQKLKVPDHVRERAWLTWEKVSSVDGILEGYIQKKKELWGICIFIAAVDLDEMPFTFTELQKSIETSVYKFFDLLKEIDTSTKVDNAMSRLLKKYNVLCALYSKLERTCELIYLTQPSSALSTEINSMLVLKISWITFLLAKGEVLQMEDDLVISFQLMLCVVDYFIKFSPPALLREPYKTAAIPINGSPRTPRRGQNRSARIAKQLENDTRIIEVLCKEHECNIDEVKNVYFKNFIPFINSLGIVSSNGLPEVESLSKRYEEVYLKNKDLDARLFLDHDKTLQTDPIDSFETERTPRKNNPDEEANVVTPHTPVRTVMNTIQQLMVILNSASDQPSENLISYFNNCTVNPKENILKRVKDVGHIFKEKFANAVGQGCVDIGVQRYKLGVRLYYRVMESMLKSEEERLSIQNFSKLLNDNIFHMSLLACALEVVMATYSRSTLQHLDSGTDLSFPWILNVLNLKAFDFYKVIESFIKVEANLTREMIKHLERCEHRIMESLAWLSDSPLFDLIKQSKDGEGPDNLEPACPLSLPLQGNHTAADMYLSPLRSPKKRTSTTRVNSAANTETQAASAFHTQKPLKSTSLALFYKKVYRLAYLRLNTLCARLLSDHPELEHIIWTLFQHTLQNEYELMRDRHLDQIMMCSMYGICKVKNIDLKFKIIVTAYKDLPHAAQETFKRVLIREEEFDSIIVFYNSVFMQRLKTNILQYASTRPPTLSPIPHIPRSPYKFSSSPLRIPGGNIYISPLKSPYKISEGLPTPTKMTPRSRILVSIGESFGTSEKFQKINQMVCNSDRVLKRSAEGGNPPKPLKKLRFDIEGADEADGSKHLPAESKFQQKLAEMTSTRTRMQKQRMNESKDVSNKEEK

B1: p21^Cip1 (endogenous, in lysates of RafAR-expressing NIH3T3 cells) (other, UniProt P39689 2-159, looked up)
chain: SNPGDVRPVPHRSKVCRCLFGPVDSEQLRRDCDALMAGCLQEARERWNFDFVTETPLEGNFVWERVRSLGLPKVYLSPGSRSRDDLGGDKRPSTSSALLQGPAPEDHVALSLSCTLVSERPEDSPGGPGTSQGRKRRQTSLTDFYHSKRRLVFCKRKP
notes: also called p21^Cpi1
B2: purified recombinant GST-E7 (HPV16 E7) (other)
chain: MHGDTPTLHEYMLDLQPETTDLYCYEQLNDSSEEEDEIDGPAGQAEPDRAHYNIVTFCCKCDSTLRLCVQSTHVDIRTLEDLLMGTLGIVCPICSQKP

Experiment [1] has as its system Akt phosphorylated on serine 473 (P-Akt). The experiment is classed as cell-based, murine. As for the experimental part:
The drugs and R1881 were added at 0 hr and the samples were taken at 6 hrs post-treatment.
Immunoblotting and immunoprecipitations (IP). Cell pellets were lysed in HLB lysis buffer (50 mM Tris pH 8.0, 150 mM NaCl, 1% Triton X-100, 1 mM DTT, and protease inhibitor cocktail (Sigma P8340)) for 30 minutes with vortexing. After centrifugation, protein content was quantitated via a standard BioRad Bradford assay. For immunoblotting, 30-50 μg of cell lysate was separated by sodium dodecyl sulfate-polyacrylamide gel electrophoresis (SDS-PAGE) and transferred onto nitrocellulose membrane (Schleicher and Schuell). After incubation with primary and secondary antibodies, antigen detection was performed using the enhanced chemiluminescence kit from NEN. The following antibodies were obtained from Santa Cruz: α-cyclin D1 (sc-450, Western), α-cyclin D2 (sc-593, Western), α-cyclin E (sc-481, IP and Western), α-human cyclin E (sc-198, IP and Western), α-CDK2 (sc-163 g, IP and Western), α-CDK4 (sc-260, IP and Western), α-p21^Cip1 (sc-6246, Western), α-p21^Cip1 (sc-397, IP and immunofluorescence), and a-phospho-threonine (sc-5267, Western). HPV-16 E7-specific and RB-specific antibodies were purchased from Zymed and Pharmingen, respectively. Antibodies recognizing Akt or Akt phosphorylated at serine-473 were obtained from Cell Signaling. For immunoprecipitations, cell lysates were incubated with primary antibodies for 2 hours at 4° C., and immune-complexes were collected on Protein A-agarose beads (Santa Cruz) for an additional 1 hour. The complexes were washed four times with HLB buffer and resolved by 12% SDS-PAGE for immunoblotting.
c-Raf-1 was induced by addition of the androgen analog R1881, as described herein and the cells harvested at various times thereafter.

The test system of experiment [2] is NIH3T3 cells stably expressing the RafAR fusion protein. The experiment can be described thus: Cell cycle analysis (BrdU incorporation / propidium iodide) in RafAR-expressing NIH3T3 cells. The experiment is classed as cell-based, murine. Particulars: control cells (Babe), RafAR activation with 1.0 μM R1881, 30 hours. As for the experimental part: (A) NIH3T3 cells stably expressing the RafAR fusion protein were infected with amphotrophic retroviruses expressing HPV-16 E7 (E7) or empty vector (Babe). Lysates were prepared and 100 μg of protein was resolved by 15% SDS-PAGE, transferred to nitrocellulose membrane, and probed with a monoclonal antibody directed against HPV-16 E7. (B and C) Pools of Babe- or E7-expressing cells growing in DMEM plus 10% NCS were treated with 0.02% ethanol (−) or 1.0 μM R1881 (+) for 30 hours and pulsed with BrdU for 30 minutes. Cells were trypsinized, fixed in 70% ethanol, and stained with propidium iodide (PI) for detection of total DNA content (B) and with α-BrdU-FITC for detection of DNA synthesis (C).
(A) E7-expressing cells were treated for 30 hours with 1.0 μM R1881 in the absence or presence of increasing concentrations of LY294002 (50 μM, 100 μM, 200 μM), an inhibitor of PI-3K activity. DNA synthesis was measured via BrdU incorporation. (B) E7-expressing cells were treated with 1.0 uM R1881 in the presence or absence of 100 uM LY294002, stained with p21^Cip1-specific antibody, and quantitated for nuclear p21^Cip1 localization as in FIG. 7. […] Cells were stained with α-BrdU, and GFP-positive cells were scored for BrdU incorporation via indirect immunofluorescence. Percentages of BrdU incorporation were calculated by defining the number obtained from vehicle-treated cells as 100%. […]
(In general: Uptake of a labelled nucleoside into DNA is a usual measure of proliferation.)

Experiment [3] deals with RafAR-expressing NIH3T3. Put plainly: Cell morphology after RafAR activation in NIH3T3. It is filed as cell-based, murine. Particulars: RafAR activation with 1.0 μM R1881.
Experiment [4] relates to human foreskin keratinocytes (HFK). The experiment can be described thus: Adriamycin DNA damage in control or E7-expressing HFK, Western blots for active Akt and p21^CIP. It is filed as cell-based. Particulars: 0.1 mM Adriamycin, 17 hours. Background: Immunoblotting shows a protein as a band on a membrane.
The test system of experiment [5] is p27^Kip1 nuclear localization. Put plainly: p27^Kip1 localization by immunofluorescence in TGF-β treated tet-E7 Mv1Lu cells. The experiment is classed as cell-based, mink. Particulars: 3 ng/mL TGF-β, 24 hours, absence of E7. As for the experimental part: (A) Tet-E7 Mv1Lu cells were treated for 24 hours with 2 μg/mL doxycycline or vehicle. Cell lysates were analyzed by Western blotting with antibody specific for HPV16 E7. (B) Tet-E7 Mv1Lu cells were treated for 24 hours with 3 ng/mL TGF-β in the presence or absence of 2 μg/mL doxycycline and subsequently analyzed for p27^Kip1 expression via Western blot. (C, D) Tet-E7 Mv1Lu cells were treated as in (B), fixed with 3.7% paraformaldehyde, and stained with p27^Kip1 specific antibody as described in Materials and Methods. (C) Representative fluorescent (left panels) and phase contrast (right panels) micrographs of TGF-β treated cells in the absence (upper panels) or presence (lower panels) of doxycycline. […] The number of cells with nuclear p27^Kip1 accumulation is represented as a percentage of total cells counted. The average and deviation values shown are from two independent experiments with at least 200 cells counted per experiment.
Cell culture. NIH3T3 cells stably expressing the RafAR fusion protein have been described previously (Sewing et al., 1997). This cell line and all derivatives were cultured in DMEM without phenol red (GIBCO-BRL) supplemented with 10% charcoal-stripped newborn calf serum (NCS, Hyclone). […]
Immunofluorescence. […] Antigen staining was visualized by inverted fluorescence microscopy (Olympus CK40), and images were captured with Quality Imaging camera and software. […]

The target in experiment [6] is cyclin E (endogenous, in lysates of RafAR-NIH3T3 cells) (UniProt Q61457 1-408). The experiment can be described thus: cyclin E immunoprecipitation, p21^Cip1 Western blot.
For experiment [7], the target named is B1. The experiment can be described thus: GST pull-down from control cell lysate, Western blot.
Experiment [8] deals with T1, RB (retinoblastoma protein, endogenous, …). The experiment is described as above.
Where [9] appears, read: drug added with R1881 at 0 hr, samples taken 6 hrs post-treatment.

Consider eight molecules from patent US20060088472A1, “E7 regulation of p21 cip1 through akt” (priority 2002, published 2006).

Like-named read-outs stand apart in the source and are kept apart here. Residues, ends and D or L forms follow the SMILES beside them. *: point of attachment. Cbz = O=C(OCc1ccccc1)*

Take `CC(C)C[C@@H](C=O)NC(=O)[C@H](CC(C)C)NC(=O)[C@H](CC(C)C)NC(=O)OCc1ccccc1` [MG132] (Cbz-Leu-Leu-Leu-aldehyde): the “down-regulation of active Akt (P-Akt) on induction of c-Raf-1” value in experiment [1] (setting [9]) is “down-regulation of P-Akt was similar to control cells”.
Regarding `C[C@]1(O)CC[C@H]2[C@@H]3CCC4=CC(=O)CCC4=C3C=C[C@@]21C` [R1881, methyltrienolone], in experiment [2], the DNA synthesis entry is listed as “inhibition of DNA synthesis” and the “cells accumulating in G1” value is given as over 85%. In experiment [1] (c-Raf-1 induced by R1881), the “time post-treatment at which down-regulation of active Akt (P-Akt) is observed” value is at most 5 h and the “time post-treatment at which total Akt protein levels decrease” value was 19 to 26 h. In experiment [3], the cell morphology entry is “morphological changes including elongation and development of extended processes”.
Take `N#CC(=C(/N)Sc1ccccc1N)/C(C#N)=C(\N)Sc1ccccc1N` [U0126]: in experiment [1], the “basal level of active Akt” value is “increased” and the “down-regulation of active Akt (P-Akt) on induction of c-Raf-1” value is reported as “down-regulation is inhibited”.
Consider `COc1cccc2c1C(=O)c1c(O)c3c(c(O)c1C2=O)C[C@@](O)(C(=O)CO)C[C@@H]3O[C@H]1C[C@H](N)[C@H](O)[C@H](C)O1` [adriamycin], for which, in experiment [4], the “active Akt levels after adriamycin treatment” value is “maintained only in E7-expressing cells” and the “p21^CIP levels after adriamycin treatment” value is “increased”.
In the case of `C[C@@H]1C[C@@H]([C@H](O)CC2CC(=O)NC(=O)C2)C(=O)[C@@H](C)C1` [cyclohexamide], in experiment [1] (setting [9]), the “down-regulation of active Akt (P-Akt) on induction of c-Raf-1” value is “inhibited the down-regulation of Akt”.
Turning to TGF-β, the “nuclear accumulation of p27^Kip1” value in experiment [5] was “robust nuclear accumulation”.
As to B1, the binding result in experiment [6] is listed as “binds”.
On to B2, for which the binding result in experiment [7] was “no binding”; in experiment [8] it was “binds”.
